Measured values as given in patent publication US20070054325A1, “Materials and methods for screening modulators of neural regeneration” (REGLIA, priority 2005, published 2007).
Like-named read-outs stand apart in the source and are kept apart here. Blank lines part the entries; values can stand above or below the compound they belong to. Bridges are numbered along the chain shown (N, C = ends). Where no end group is shown, it is not given here.

Columns and labels:
[1] = test system: ETBR; details: Rogers et al., Glia 2003, cited from earlier work
[2] = target: T1, C3aR (Mus musculus, UniProt O09047); test: Basal neurogenesis in mice treated with a C3aR antagonist (BrdU/Dcx/NeuN immunostaining); type: in vivo, wild-type C57BL/6 mice; details: for number of Dcx^posBrdU^pos cells, lower compared to control mice: 500 μg/mouse twice daily for 10 days
T1 construct: wild-type C57BL/6 mice (8 week old male; n=12) were injected with a nonpeptide antagonist of the C3aR; from tissue; host or cells: living wild-type C57BL/6 mice; read-out in brain (SVZ, dentate gyrus, olfactory bulb)
T1 sequence (O09047 1-477): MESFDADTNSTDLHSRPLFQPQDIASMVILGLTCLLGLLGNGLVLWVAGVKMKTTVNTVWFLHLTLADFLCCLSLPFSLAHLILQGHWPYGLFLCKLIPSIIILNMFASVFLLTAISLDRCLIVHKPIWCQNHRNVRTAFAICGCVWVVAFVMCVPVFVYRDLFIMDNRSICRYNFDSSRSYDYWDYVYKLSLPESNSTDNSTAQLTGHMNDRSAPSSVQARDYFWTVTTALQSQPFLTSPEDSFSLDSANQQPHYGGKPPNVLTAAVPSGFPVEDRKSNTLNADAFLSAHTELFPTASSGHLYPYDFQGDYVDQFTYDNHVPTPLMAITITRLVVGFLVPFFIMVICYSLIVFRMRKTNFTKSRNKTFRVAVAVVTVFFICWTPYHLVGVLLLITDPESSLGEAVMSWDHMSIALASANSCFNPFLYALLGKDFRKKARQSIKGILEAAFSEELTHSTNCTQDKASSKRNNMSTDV
Procedure: To assess whether signaling through the C3aR plays a role in basal neurogenesis, wild-type C57BL/6 mice (8 week old male; n=12) were injected with a nonpeptide antagonist of the C3aR, SB290157 (Calbiochem, San Diego, Calif., USA; 500 μg/mouse; Ames et al., J. Immunol. 166:6341-6348, 2001) diluted in PBS and DMSO (1.16% v/v) twice daily or vehicle for 10 days. Control mice (n=10) were given PBS and DMSO (1.16% v/v). During the first 7 days, all the mice also received bromodeoxyuridine (BrdU) (Sigma-Aldrich; 200 mg/kg). On day 10 after the first injection, the mice were deeply anesthetized and perfused.
Mouse brains were embedded in paraffin, cut into 8-μm sections, and stained with hematoxylin and erytrosin. For immunohistochemical evaluation, the sections were deparaffinized, permeabilized in 0.01 M citric acid (pH 6.0), heated twice for 5 min each in a microwave oven for antigen retrieval, and blocked with 0.1% BSA and 0.05% Triton-X-100 in PBS. Negative control was performed by omitting the primary antibody, unless stated otherwise.
Newly formed neurons were visualized by staining with biotinylated mouse anti-NeuN monoclonal antibody (Chemicon, Temecula, Calif., USA; 1:100) followed by Cy3-conjugated streptavidin (Sigma-Aldrich; 1:100) or Alexa633-conjugated streptavidin (Molecular Probes; 1:500) in combination with FITC-conjugated rat anti-BrdU antibody (Accurate Chemical, Westbury, N.Y., USA; 1:75). NeuN^pos BrdU^pos cells were counted in the penumbra on 2-3 sections per mouse. BrdU^pos cells were also counted in the SVZ. The sections were further stained with mouse anti-BrdU antibody (DAKO; 1:100) and Alexa 568 conjugated goat anti-mouse Ig (Molecular Probes; 1:500). BrdU^pos and NeuN^posBrdU^pos cells were counted in one hemisphere on 4-12 sections 160 μm apart/region in the granular layer of the olfactory bulb (bregma 3.2 mm to 4.28 mm) and dentate gyrus subgranular zone (bregma −1.34 mm to −3.64 mm).
Migrating neural progenitor cells were detected with goat anti-doublecortin (Dcx) antibody (Santa Cruz Biotechnology, Santa Cruz, Calif., USA; 1:50) followed by Alexa488-conjugated donkey anti-goat Ig (Molecular Probes; 1:100). Sections were further stained with mouse anti-BrdU antibody. BrdU^pos and Dcx^posBrdU^pos cells were counted in one hemisphere on 4-12 sections 160 μm apart/region in the SVZ (bregma 0.14 mm to 1.1 mm), the granular layer of the olfactory bulb (bregma 3.2 mm to 4.28 mm), and dentate gyrus subgranular zone (bregma −1.34 mm to −3.64 mm).
Proliferating migrating neuroblasts (Dcx^posBrdU^pos), newly formed neurons (NeuN^posBrdU^pos) and BrdU^pos cells were counted in the two principal sites of adult neurogenesis, SVZ and the dentate gyrus subgranular zone of the hippocampus, as well as in the olfactory bulb, the final destination for the neuroblasts originating in SVZ under basal conditions. In all three regions, the number of Dcx^posBrdU^pos cells was reduced in mice that received the C3aR antagonist. […] Also, the fraction of these cells among the BrdU^pos cells was reduced in the C3aR antagonist-treated mice: 19.0±1.1 vs. 26.7±1.7%, P<0.005 in the olfactory bulb; 13.1±0.6 vs. 17.3±0.8%, P<0.0005 in the dentate gyrus subgranular zone; and 26.4±0.8 vs. 31.4±1.2%, P<0.005 in the SVZ. […] The fraction of these cells among the BrdU^pos cells was reduced in the C3aR antagonist treated mice: 1.2±0.1 vs. 1.7±0.1%, P<0.005 in the olfactory bulb; 1.7±0.1 vs. 2.3±0.2%, P<0.05 in the dentate gyrus subgranular zone. The number of BrdU^pos cells in any of the regions was not affected by the C3aR antagonist treatment.

[3] = test system: Neural stem cells, e.g., HCNA 94/GFPH; test: Neural stem cell differentiation assay (MAP2 immunostaining, DAPI); type: cell-based
Procedure: It was previously known that it was possible to modulate cells, other than neurons, via C3aR. Accordingly, C3aR antagonists blocked modulation via the receptor and C3aR agonists stimulated the receptor. To evaluate the effect of C3aR agonists on neural stem cell differentiation in vitro, a neural stem cell differentiation assay was performed as set out below.
Neural stem cells, e.g., HCNA 94/GFPH, were cultured with a C3aR agonist (C3a) at a concentration of either 10 nM or 100 nM for three to ten days in the presence and absence of a known C3aR antagonist, SB290157 (Ames at al., J. Immunol. 166: 6341-6348, 2001), at a concentration of 5-10 μM, administered to the culture either prior to or at the same time as the C3aR agonist. The number of cells that differentiated into neurons was measured by immunostaining with antibodies against MAP2 (Sigma) and visualized using 4′,6-Diamidino-2-phenylindole (DAPI) staining. A compound is regarded as a stimulator of neural stem cell differentiation into neurons if it stimulates differentiation into neurons at a rate at least 25% greater than control cells (cultured in the presence of medium alone). The effect of the C3aR agonist on neural stem cell differentiation was not blocked by SB290157 (see Table 5 below). Thus, SB290157 was not effective in inhibited neuronal cell differentiation at the concentrations tested.

Compound: COc1ccccc1Oc1c(NS(=O)(=O)c2ccc(C(C)(C)C)cc2)nc(-c2ncccn2)nc1OCCO [Bosenthan]
effect on astrocyte hypertrophy ([1]; ETBR antagonist in CNS trauma): reduced astrocyte hypertrophy

number of Dcx^posBrdU^pos cells, lower compared to control mice ([2]; SVZ, P<0.05): 12.5%
fraction of Dcx^posBrdU^pos cells among the BrdU^pos cells ([2]; SVZ, control 31.4±1.2%, P<0.005): 26.4±0.8%
number of BrdU^pos cells ([2]; any of the regions (SVZ, dentate gyrus subgranular zone, olfactory bulb)): not affected
number of Dcx^posBrdU^pos cells, lower compared to control mice ([2]; dentate gyrus subgranular zone, P<0.0005): 27%
fraction of NeuN^posBrdU^pos cells among the BrdU^pos cells ([2]; dentate gyrus subgranular zone, control 2.3±0.2%, P<0.05): 1.7±0.1%
fraction of Dcx^posBrdU^pos cells among the BrdU^pos cells ([2]; dentate gyrus subgranular zone, control 17.3±0.8%, P<0.0005): 13.1±0.6%
reduction in the number of NeuN^posBrdU^pos cells ([2]; olfactory bulb and dentate gyrus subgranular zone, P<0.005): 22-25%
number of Dcx^posBrdU^pos cells, lower compared to control mice ([2]; olfactory bulb, P<0.0005): 34%
fraction of NeuN^posBrdU^pos cells among the BrdU^pos cells ([2]; olfactory bulb, control 1.7±0.1%, P<0.005): 1.2±0.1%
fraction of Dcx^posBrdU^pos cells among the BrdU^pos cells ([2]; olfactory bulb, control 26.7±1.7%, P<0.005): 19.0±1.1%
Compound: NC(N)=NCCC[C@H](NC(=O)COCC(c1ccccc1)c1ccccc1)C(=O)O [SB290157]
inhibition of the C3aR agonist effect on neural stem cell differentiation ([3]; SB290157 5-10 μM, given prior to or with C3a 10 or 100 nM): not effective
% of MAP2+ Cells Among All DAPI+ Cells (Mean ± SEM) ([3]; SD290157 5 μM alone, culture medium alone 2.54 ± 0.12): 2.70 ± 0.19%

Compound: endothelin 1: endothelin peptide, an ETBR agonist (CSCSSLMDKECVYFCHLDIIW; disulfide 1-15, 3-11; ends not checked; UniProt P05305 53-73, looked up)
effect on astrocyte hypertrophy ([1]; ETBR agonist administration): leads to astrocyte hypertrophy
